From publication PMC5520492, “Inhibition of DNA2 nuclease as a therapeutic strategy targeting replication stress in cancer cells” (Oncogenesis, 2017) come the findings set out here.

Molecules are shown by their SMILES.

This assay has as its system U2OS cells. Nature of the assay: Cell-based viability/proliferation screen, DAPI staining and automated microscopy. More on the design: species or system human. As to conditions: for IC50: Homo sapiens, 10 pM to 10 μM, DAPI staining, read-out: IC50 from Screening Cell Based. The method, then:
The biological effectiveness of the 39 compounds selected by re-screening was determined by measuring their half maximal inhibitory concentration (IC50) biochemically and in a cell-based system using the 384-well platform (Supplementary Table S2). […] We conducted the viability assay in duplicate on three separate occasions using a concentration range of 10 pM to 10 μM for each compound. Cell proliferation was determined using 4,6-diamidino-2-phenylindole staining and microscopy.
In addition, a second dark quencher ZEN (N,N-diethyl-4-(4-nitronaphthalen-1-ylazo)-phenylamine, absorption max.=532 nm) is placed between 9th and 10th base (Figure 2a). Initial screen, it was performed with yDna2.[22] Then, the top candidate compounds were tested on hDNA2. Identical reaction conditions were used for assaying the nuclease activity of yDna2 and hDNA2. […] The reaction buffer was 20 mM HEPES/NaOH, pH 7.5, 60 mM KCl, 1 mM DTT, 100 μg/ml bovine serum albumin and 0.05% Triton X-100. The nuclease assay was initiated by adding MgCl2 (3 mM final concentration). T5 nuclease was assayed in the buffer (50 mM potassium acetate, pH 7.9, 20 mM Tris-acetate, 10 mM magnesium acetate and 1 mM DTT) provided by the vendor (NEB, Ipswich, MA, USA). The concentration of the fluorogenic substrate was 0.1 μM. The optimal amount of yDna2, hDNA2 and T5 nuclease was determined by utilizing the Kaleidagraph software (Reading, PA, USA) to fit the data according to Michaelis Menton Kinetics (V=V0+Vmax*x/(Km+x)). […] All the compounds were dissolved in DMSO and DMSO alone was used as control; the final concentration of DMSO was at 3.33% for protein-based assay and 0.1% for cell-based assay. The Z’ value was calculated as previously described.[50] Cell proliferation was determined using 4,6-diamidino-2-phenylindole staining followed by high-throughput microscopy in a 384-well plate setup. In brief, cells were fixed with formaldehyde, washed and stained with 4,6-diamidino-2-phenylindole and the number of nuclei in each well counted by automated microscopy. The data were analyzed as described.[51]

A word on the IC50: it is the concentration that inhibits the measured activity by half. In the case of `O=C1C(=O)c2cc([N+](=O)[O-])ccc2-c2ccccc21` [NSC-5195242, 2-nitrophenanthrene-9,10-dione], the IC50 came out at 1000 nM.
For the compound `NC1=C(Br)C(=O)c2ncccc2C1=O` [NSC-105808, 6-amino-7-bromoquinoline-5,8-dione], the IC50 came out at 2700 nM. Moreover, the “Effect of longer exposure on cells” value (exposure >48 h) is reported as “causes cell death”.
